Assay results as given in patent US20240059671A1, “TYROSINE KINASE 2 (TYK2) DEGRADATION COMPOUNDS AND METHODS OF USE” (CULLGEN (SHANGHAI), INC., priority 2020, published 2024).

Target: TYK2 (Homo sapiens, UniProt P29597)
Assay: TYK2 protein degradation in MOLT-4 cells by immunoblotting
Type: cell-based
Design: endogenous in cells; host or cells: MOLT-4
Details: MOLT-4 cells, 24 hours
In short: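 MOLT-4 cells were exposed to compounds at 0.5 and 5 μM for 24 h, then lysed in RIPA buffer with protease and phosphatase inhibitors. TYK2 was detected by SDS-PAGE immunoblot with chemiluminescence, and band densitometry gave percent degradation.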

TYK2, sequence (P29597 whole entry): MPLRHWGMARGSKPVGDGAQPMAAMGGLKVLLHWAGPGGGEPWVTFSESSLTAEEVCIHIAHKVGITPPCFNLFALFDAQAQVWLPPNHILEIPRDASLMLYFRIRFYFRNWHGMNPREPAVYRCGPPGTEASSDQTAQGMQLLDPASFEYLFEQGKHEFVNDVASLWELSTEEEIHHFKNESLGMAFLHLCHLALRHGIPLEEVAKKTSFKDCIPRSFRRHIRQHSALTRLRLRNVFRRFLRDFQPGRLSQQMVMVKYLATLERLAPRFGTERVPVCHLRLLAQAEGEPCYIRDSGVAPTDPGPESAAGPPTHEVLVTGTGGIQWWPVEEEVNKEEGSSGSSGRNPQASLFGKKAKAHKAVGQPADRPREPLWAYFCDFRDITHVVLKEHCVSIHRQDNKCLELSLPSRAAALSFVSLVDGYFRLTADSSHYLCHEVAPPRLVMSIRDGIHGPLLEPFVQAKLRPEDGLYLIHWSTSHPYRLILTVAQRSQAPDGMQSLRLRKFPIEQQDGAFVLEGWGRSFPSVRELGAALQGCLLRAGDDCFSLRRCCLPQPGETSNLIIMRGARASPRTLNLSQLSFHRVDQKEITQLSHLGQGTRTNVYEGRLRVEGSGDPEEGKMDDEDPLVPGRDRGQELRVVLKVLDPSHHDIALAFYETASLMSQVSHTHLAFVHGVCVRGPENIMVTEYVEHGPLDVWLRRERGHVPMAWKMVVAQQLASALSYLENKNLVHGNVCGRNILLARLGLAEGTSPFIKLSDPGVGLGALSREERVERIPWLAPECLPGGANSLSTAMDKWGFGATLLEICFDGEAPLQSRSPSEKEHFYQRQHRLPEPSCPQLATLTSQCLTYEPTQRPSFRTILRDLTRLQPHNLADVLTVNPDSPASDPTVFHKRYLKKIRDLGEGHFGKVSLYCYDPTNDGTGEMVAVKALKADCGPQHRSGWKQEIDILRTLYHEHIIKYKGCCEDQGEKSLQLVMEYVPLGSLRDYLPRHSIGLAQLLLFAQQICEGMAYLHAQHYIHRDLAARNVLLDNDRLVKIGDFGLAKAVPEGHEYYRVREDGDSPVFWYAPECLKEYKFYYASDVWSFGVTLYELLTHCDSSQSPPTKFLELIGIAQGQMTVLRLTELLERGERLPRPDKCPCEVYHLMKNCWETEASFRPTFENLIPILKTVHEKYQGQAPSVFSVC

| TYK2 Degradation (0.5 μM) [%] | TYK2 Degradation (5 μM) [%] | TYK2 Degradation (MOLT-4, 5 μM) | Compound | TYK2 Degradation (MOLT-4, 0.5 μM) |
| --- | --- | --- | --- | --- |
| ≤20 | 30 |  | CNC(=O)c1nnc(NC(=O)CNC(=O)CCCCCC(=O)N[C@H](C(=O)N2C[C@H](O)C[C@H]2C(=O)NCc2ccc(-c3scnc3C)cc2)C(C)(C)C)cc1Nc1cccc(-c2ncn(C)n2)c1OC [CPD-037, N^1—((S)-1-((2S,4R)-4-Hydroxy-2-((4-(4-methylthiazol-5-yl)benzyl)carbamoyl)pyrrolidin-1-yl)-3,3-dimethyl-1-oxobutan-2-yl)-N^7-(2-((5-((2-methoxy-3-(1-methyl-1H-1,2,4-triazol-3-yl)phenyl)amino)-6-(methylcarbamoyl)pyridazin-3-yl)amino)-2-oxoethyl)heptanediamide] |  |
|  |  | C (C: ≤20% TYK2 degradation) | CNC(=O)c1nnc(Nc2ccc(N3CCN(C(=O)CCC(=O)N[C@H](C(=O)N4C[C@H](O)C[C@H]4C(=O)NCc4ccc(-c5scnc5C)cc4)C(C)(C)C)CC3)cn2)cc1Nc1cccc(-c2ncn(C)n2)c1OC [CPD-096, 6-((5-(4-(4-(((S)-1-((2S,4R)-4-Hydroxy-2-((4-(4-methylthiazol-5-yl)benzyl)carbamoyl)pyrrolidin-1-yl)-3,3-dimethyl-1-oxobutan-2-yl)amino)-4-oxobutanoyl)piperazin-1-yl)pyridin-2-yl)amino)-4-((2-methoxy-3-(1-methyl-1H-1,2,4-triazol-3-yl)phenyl)amino)-N-methylpyridazine-3-carboxamide] | B (B: <60% TYK2 degradation, and >20% TYK2 degradation) |
| ≤20 | ≤20 |  | CNC(=O)c1nnc(NC(=O)CNC(=O)CCCCCNc2cccc3c2C(=O)N(C2CCC(=O)NC2=O)C3=O)cc1Nc1cccc(-c2ncn(C)n2)c1OC (centres unmarked) [CPD-046, 6-(2-(6-((2-(2,6-Dioxopiperidin-3-yl)-1,3-dioxoisoindolin-4-yl)amino)hexanamido)acetamido)-4-((2-methoxy-3-(1-methyl-1H-1,2,4-triazol-3-yl)phenyl)amino)-N-methylpyridazine-3-carboxamide] |  |
| ≤20 | ≤20 |  | CNC(=O)c1nnc(NC(=O)C2CC2)cc1Nc1cccc(-c2ncn(CCNC(=O)CCOCCOCCC(=O)N[C@H](C(=O)N3C[C@H](O)C[C@H]3C(=O)NCc3ccc(-c4scnc4C)cc3)C(C)(C)C)n2)c1OC [CPD-069, 6-(Cyclopropanecarboxamido)-4-((3-(1-((S)-15-((2S,4R)-4-hydroxy-2-((4-(4-methylthiazol-5-yl)benzyl)carbamoyl)pyrrolidine-1-carbonyl)-16,16-dimethyl-4,13-dioxo-7,10-dioxa-3,14-diazaheptadecyl)-1H-1,2,4-triazol-3-yl)-2-methoxyphenyl)amino)-N-methylpyridazine-3-carboxamide] |  |
|  |  | C (C: ≤20% TYK2 degradation) | CNC(=O)c1nnc(NC(=O)CNC(=O)CCCCCCCCOc2cc(-c3scnc3C)ccc2CNC(=O)[C@@H]2C[C@@H](O)CN2C(=O)[C@@H](NC(=O)C2(F)CC2)C(C)(C)C)cc1Nc1cccc(-c2ncn(C)n2)c1OC [CPD-108, 6-(2-(9-(2-(((2S,4R)-1-((S)-2-(1-Fluorocyclopropane-1-carboxamido)-3,3-dimethylbutanoyl)-4-hydroxypyrrolidine-2-carboxamido)methyl)-5-(4-methylthiazol-5-yl)phenoxy)nonanamido)acetamido)-4-((2-methoxy-3-(1-methyl-1H-1,2,4-triazol-3-yl)phenyl)amino)-N-methylpyridazine-3-carboxamide] | C (C: ≤20% TYK2 degradation) |
| ≤20 | ≤20 |  | CNC(=O)c1nnc(NC(=O)CNC(=O)CCCCCCCNc2ccc3c(c2)C(=O)N(C2CCC(=O)NC2=O)C3=O)cc1Nc1cccc(-c2ncn(C)n2)c1OC (centres unmarked) [CPD-060, 6-(2-(8-((2-(2,6-Dioxopiperidin-3-yl)-1,3-dioxoisoindolin-5-yl)amino)octanamido)acetamido)-4-((2-methoxy-3-(1-methyl-1H-1,2,4-triazol-3-yl)phenyl)amino)-N-methylpyridazine-3-carboxamide] |  |
| 50 | ≤20 |  | CNC(=O)c1nnc(NC(=O)CNC(=O)CCCCCCCNc2cccc3c2C(=O)N(C2CCC(=O)NC2=O)C3=O)cc1Nc1cccc(-c2ncn(C)n2)c1OC (centres unmarked) [CPD-048, 6-(2-(8-((2-(2,6-Dioxopiperidin-3-yl)-1,3-dioxoisoindolin-4-yl)amino)octanamido)acetamido)-4-((2-methoxy-3-(1-methyl-1H-1,2,4-triazol-3-yl)phenyl)amino)-N-methylpyridazine-3-carboxamide] |  |
|  |  | C (C: ≤20% TYK2 degradation) | CNC(=O)c1nnc(NC(=O)C2CC2)cc1Nc1cccc(-c2ncn(CCNC(=O)CCCCCCCCC(=O)N[C@H](C(=O)N3C[C@H](O)C[C@H]3C(=O)NCc3ccc(-c4scnc4C)cc3)C(C)(C)C)n2)c1OC [CPD-081, N^1-(2-(3-(3-((6-(Cyclopropanecarboxamido)-3-(methylcarbamoyl)pyridazin-4-yl)amino)-2-methoxyphenyl)-1H-1,2,4-triazol-1-yl)ethyl)-N^10-((S)-1-((2S,4R)-4-hydroxy-2-((4-(4-methylthiazol-5-yl)benzyl)carbamoyl)pyrrolidin-1-yl)-3,3-dimethyl-1-oxobutan-2-yl)decanediamide] | C (C: ≤20% TYK2 degradation) |
| ≤20 |  |  | CNC(=O)c1nnc(NC(=O)C2CC2)cc1Nc1cccc(-c2ncn(CCNC(=O)CCOCCOCCOCCOCCNc3cccc4c3C(=O)N(C3CCC(=O)NC3=O)C4=O)n2)c1OC (centres unmarked) [CPD-011, 6-(Cyclopropanecarboxamido)-4-((3-(1-(1-((2-(2,6-dioxopiperidin-3-yl)-1,3-dioxoisoindolin-4-yl)amino)-15-oxo-3,6,9,12-tetraoxa-16-azaoctadecan-18-yl)-1H-1,2,4-triazol-3-yl)-2-methoxyphenyl)amino)-N-methylpyridazine-3-carboxamide] |  |
| ≤20 |  |  | CNC(=O)c1nnc(NC(=O)C2CC2)cc1Nc1cccc(-c2ncn(CCNC(=O)CCNc3cccc4c3C(=O)N(C3CCC(=O)NC3=O)C4=O)n2)c1OC (centres unmarked) [CPD-002, 6-(Cyclopropanecarboxamido)-4-((3-(1-(2-(3-((2-(2,6-dioxopiperidin-3-yl)-1,3-dioxoisoindolin-4-yl)amino)propanamido)ethyl)-1H-1,2,4-triazol-3-yl)-2-methoxyphenyl)amino)-N-methylpyridazine-3-carboxamide] |  |
|  |  | A (A: ≥60% TYK2 degradation) | CNC(=O)c1nnc(NC(=O)CNC(=O)CCCCCCCCCCNC(=O)C[C@H](NC(=O)[C@@H]2C[C@@H](O)CN2C(=O)[C@@H](NC(=O)C2(F)CC2)C(C)(C)C)c2ccc(-c3scnc3C)cc2)cc1Nc1cccc(-c2ncn(C)n2)c1OC [CPD-095, 6-(2-(11-((S)-3-((2S,4R)-1-((S)-2-(1-Fluorocyclopropane-1-carboxamido)-3,3-dimethylbutanoyl)-4-hydroxypyrrolidine-2-carboxamido)-3-(4-(4-methylthiazol-5-yl)phenyl)propanamido)undecanamido)acetamido)-4-((2-methoxy-3-(1-methyl-1H-1,2,4-triazol-3-yl)phenyl)amino)-N-methylpyridazine-3-carboxamide] | B (B: <60% TYK2 degradation, and >20% TYK2 degradation) |
